Laboratory results reported in paper doi:10.1101/2021.10.07.463234v2 (biorxiv, 2021).
Structures can show the parent of a compound that is named as a salt. Bridge positions count the residues as written; N and C are the ends. Square brackets hold non-standard residues; d marks the D form. Peptide text beside a SMILES is read from it. * marks the point of attachment. Ileψ(thiazoline)Cys = CC[C@H](C)[C@H](N)C1=N[C@H](C(=O)*)CS1; dOrn = NCCC[C@@H](N)C(=O)O

Target: SARS-CoV-2 Mac1 (Severe acute respiratory syndrome coronavirus 2, UniProt P0DTD1)
Assay: biochemical
Settings: 100 µM; inhibitor

SMILES | %inhibition
CC(=O)Oc1ccccc1C(=O)O [Aspirin] | 26.28%
COc1ccc(C[C@@H]2c3cc(OC)c(OC)cc3CC[N@+]2(C)CCC(=O)OCCCCCOC(=O)CC[N@@+]2(C)CCc3cc(OC)c(OC)cc3[C@H]2Cc2ccc(OC)c(OC)c2)cc1OC [Atracurium Besylate] | 4.976%
CC[C@H]1OC(=O)[C@H](C)[C@@H](O[C@H]2C[C@@](C)(OC)[C@@H](O)[C@H](C)O2)[C@H](C)[C@@H](O[C@@H]2O[C@H](C)C[C@H](N(C)C)[C@H]2O)[C@](C)(O)C[C@@H](C)CN(C)[C@H](C)[C@@H](O)[C@]1(C)O [Azithromycin Dihydrate] | 2.079%
CC[C@H]1OC(=O)[C@H](C)[C@@H](O[C@H]2C[C@@](C)(OC)[C@@H](O)[C@H](C)O2)[C@H](C)[C@@H](O[C@@H]2O[C@H](C)C[C@H](N(C)C)[C@H]2O)[C@](C)(O)C[C@@H](C)CN(C)[C@H](C)[C@@H](O)[C@]1(C)O [Azithromycin] | 5.483%
Cc1c(-c2ccc(O)cc2)n(Cc2ccc(OCCN3CCCCCC3)cc2)c2ccc(O)cc12 [Bazedoxifene Acetate] | 3.518%
Cc1c(-c2ccc(O)cc2)n(Cc2ccc(OCCN3CCCCCC3)cc2)c2ccc(O)cc12 [Bazedoxifene HCl] | 0%
COc1nc2ccc(Br)cc2cc1[C@@H](c1ccccc1)[C@@](O)(CCN(C)C)c1cccc2ccccc12 [Bedaquiline fumarate] | 0%
COc1nc2ccc(Br)cc2cc1[C@@H](c1ccccc1)[C@@](O)(CCN(C)C)c1cccc2ccccc12 [Bedaquiline] | 4.292%

Same assay, conditions: read-out: %inhibition

SMILES | inhibition at 100 µM
COC(=O)[C@H](Cc1ccccc1)NC(=O)[C@@H](N)CC(=O)O [Aspartame] (H-Asp-Phe-OMe) | 0%
C=C[C@@H]1C[C@]1(NC(=O)[C@@H]1C[C@@H](Oc2ncc(OC)c3ccc(Cl)cc23)CN1C(=O)[C@@H](NC(=O)OC(C)(C)C)C(C)(C)C)C(=O)NS(=O)(=O)C1CC1 [Asunaprevir] | 0%
COC(=O)N[C@H](C(=O)N[C@@H](Cc1ccccc1)[C@@H](O)CN(Cc1ccc(-c2ccccn2)cc1)NC(=O)[C@@H](NC(=O)OC)C(C)(C)C)C(C)(C)C [Atazanavir Sulfate] | 0%
CC(C)NCC(O)COc1ccc(CC(N)=O)cc1 (stereo not shown) [Atenolol] | 0%
CCC1(c2c[nH]cn2)Cc2ccccc2C1 [Atipamezole hydrochloride] | 0%
CNCC[C@@H](Oc1ccccc1C)c1ccccc1 [Atomoxetine HCl] | 0%
CC(C)c1c(C(=O)Nc2ccccc2)c(-c2ccccc2)c(-c2ccc(F)cc2)n1CC[C@@H](O)C[C@@H](O)CC(=O)O [Atorvastatin Calcium] | 0%
O=C1C(O)=C([C@H]2CC[C@H](c3ccc(Cl)cc3)CC2)C(=O)c2ccccc21 [Atovaquone] | 23.4%
NC(=O)[C@@H](CCC(F)(F)F)N(Cc1ccc(-c2ncon2)cc1F)S(=O)(=O)c1ccc(Cl)cc1 [Avagacestat (BMS-708163)] | 0%
COc1ccc(CNc2nc(N3CCC[C@H]3CO)ncc2C(=O)NCc2ncccn2)cc1Cl [Avanafil] | 0%
NC(=O)[C@@H]1CC[C@@H]2CN1C(=O)N2OS(=O)(=O)O [Avibactam sodium] | 0%
COc1ccc(C(=O)CC(=O)c2ccc(C(C)(C)C)cc2)cc1 [Avobenzone] | 26.5%
CNC(=O)c1ccccc1Sc1ccc2c(/C=C/c3ccccn3)n[nH]c2c1 [Axitinib] | 59.3%
Nc1ncn([C@@H]2O[C@H](CO)[C@@H](O)[C@H]2O)c(=O)n1 [Azacitidine] | 32.2%
OC(c1ccccc1)(c1ccccc1)C1CCNCC1 [Azacyclonol] | 0%
O=C(CCCN1CCN(c2ccccn2)CC1)c1ccc(F)cc1 [Azaperone] | 22.5%
CN1C(=O)COc2c(C(=O)NC3CN4CCC3CC4)cc(Cl)cc21 (stereo not shown) [Azasetron HCl] | 0%
CN1CCC(=C2c3ccccc3CCc3cccnc32)CC1 [Azatadine dimaleate] | 0%
Cn1cnc([N+](=O)[O-])c1Sc1ncnc2[nH]cnc12 [Azathioprine] | 18.9%

SMILES | inhibition at 100 µM
O=C(O)CCCCCCCC(=O)O [Azelaic acid] | 0%
CN1CCCC(n2nc(Cc3ccc(Cl)cc3)c3ccccc3c2=O)CC1 (stereo not shown) [Azelastine HCl] | 20.2%
CC1=C(C(=O)OC(C)C)C(c2cccc([N+](=O)[O-])c2)C(C(=O)OC2CN(C(c3ccccc3)c3ccccc3)C2)=C(N)N1 (stereo not shown) [Azelnidipine] | 12.9%
CCOc1nc2cccc(C(=O)OCc3oc(=O)oc3C)c2n1Cc1ccc(-c2ccccc2-c2noc(=O)[nH]2)cc1 [Azilsartan Medoxomil] | 9.53%
CCOc1nc2cccc(C(=O)O)c2n1Cc1ccc(-c2ccccc2-c2noc(=O)[nH]2)cc1 [Azilsartan] | 16.1%
CC1(C)S[C@@H]2[C@H](NC(=O)[C@H](NC(=O)N3CCNC3=O)c3ccccc3)C(=O)N2[C@H]1C(=O)O [Azlocillin sodium salt] | 0%
C[C@H]1[C@H](NC(=O)/C(=N\OC(C)(C)C(=O)O)c2csc(N)n2)C(=O)N1S(=O)(=O)O [Aztreonam] | 11.7%
CCc1cc(/C(C)=N/OCc2ccc(C3CCCCC3)c(C(F)(F)F)c2)ccc1CN1CC(C(=O)O)C1 [BAF312 (Siponimod)] | 26.1%
CC[C@H](C)[C@H](N)C1=N[C@H](C(=O)N[C@@H](CC(C)C)C(=O)N[C@H](CCC(=O)O)C(=O)N[C@H](C(=O)N[C@H]2CCCCNC(=O)[C@H](CC(N)=O)NC(=O)[C@@H](CC(=O)O)NC(=O)[C@H](Cc3cnc[nH]3)NC(=O)[C@@H](Cc3ccccc3)NC(=O)[C@H]([C@@H](C)CC)NC(=O)[C@@H](CCCN)NC2=O)[C@@H](C)CC)CS1 [Bacitracin] ({Ileψ(thiazoline)Cys}-L[dE]IK[dOrn]I[dF]H[dD]N; lactam 4-C) | 0%
Cc1ccc(NC(=O)c2ccc(CN3CC[C@H](N(C)C)C3)c(C(F)(F)F)c2)cc1Nc1nccc(-c2cncnc2)n1 [Bafetinib (INNO-406)] | 0%
CNC1CCCN(c2c(F)cc3c(=O)c(C(=O)O)cn(C4CC4)c3c2OC)C1 (stereo not shown) [Balofloxacin] | 0%
O=C(O)CCNC(=O)c1ccc(/N=N/c2ccc(O)c(C(=O)O)c2)cc1 [Balsalazide disodium] | 0%
COC(=O)[C@]12CCC(C)(C)C[C@H]1[C@H]1C(=O)C=C3[C@@]4(C)C=C(C#N)C(=O)C(C)(C)[C@@H]4CC[C@@]3(C)[C@]1(C)CC2 [Bardoxolone Methyl] | 16.4%
CCS(=O)(=O)N1CC(CC#N)(n2cc(-c3ncnc4[nH]ccc34)cn2)C1 [Baricitinib (LY3009104, INCB028050)] | 28.1%
CNC(=O)[C@H](Cc1ccccc1)NC(=O)[C@H](CC(C)C)[C@H](CSc1cccs1)C(=O)NO [Batimastat (BB-94)] | 0%
CCC(=O)OCC(=O)[C@@]1(OC(=O)CC)[C@@H](C)C[C@H]2[C@@H]3CCC4=CC(=O)C=C[C@]4(C)[C@@]3(Cl)[C@@H](O)C[C@@]21C [Beclomethasone dipropionate] | 0%
O=C(/C=C/c1cccc(S(=O)(=O)Nc2ccccc2)c1)NO [Belinostat (PXD101)] | 20%
CCC1(C)CC(=O)NC(=O)C1 [Bemegride] | 0%
CCN(CC)CCOC(=O)C(O)(c1ccccc1)c1ccccc1 [Benactyzine hydrochloride] | 0%
